According to US20240325394A1, “SALT AND CRYSTAL FORM OF NITROGEN-CONTAINING HETEROCYCLIC DERIVATIVE, PREPARATION METHOD THEREFOR AND APPLICATION THEREOF” (SHANGHAI HANSOH BIOMEDICAL CO., LTD., priority 2020, published 2024):

What was measured:
[1] = Plasma stability, mouse plasma; format: in vitro ADME; settings: mouse plasma, 37° C.
Description: (§1) Animal or human whole blood was collected, then the blood was put into a test tube containing anticoagulant, centrifuged at 3500 rpm for 10 min, and the upper layer of pale yellow plasma was collected. • 2) 10 μM of tested compound (m/M/V=C)
(§2) The compound was weighed, the stock solution was prepared with DMSO and the working solution was prepared with 100 mM phosphate buffer. • 3) 10 μM of positive control • (1) Propantheline (Propantheline Mr=449.4 Da)
(§3) • 1) 285 μL of plasma and 15 μL of 10 μM compound (tested compound) were added in turn in a 96-well plate, and incubated at 37° C. • 2) 40 μL was taken out at 0, 15, 30, 60, 90, 120 min, respectively, and 160 μL of acetonitrile termination solution containing internal standard was added. • 3) After centrifugation (3500 rpm, 10 min), 50 μL of supernatant was taken out, and then diluted with 50 μL DDH2O and injected to LC-MS/MS.
(§4) • instrument: Shimadzu LC-20 AD • chromatographic column: phenomenex Gemiu® C18 (50*4.6 mm, 5 μM particle size); • mobile phase: A: acetonitrile, B: 0.1% formic acid solution 0-8 min: 5% A→95% A, 2.0-2.1 min: 90% A→5% A; flow rate: 0.8 mL/min; running time: 5.0 min; injection volume: 5 μL.
(§5) • instrument: API4000 Liquid Chromatography-Mass Spectrometry, AB, USA; • the ion source was electrospray ionization source (ESI); • the temperature of dry gas (N2) was 500° C.; • electrospray voltage was 5500V; • the detection method was positive ion detection; • the scanning mode was selective response monitoring (MRM); • the scanning time was 0.1 s.

hERG potassium channel = molecular target: T1, hERG potassium channel (Homo sapiens, UniProt Q12809); assay: hERG potassium channel inhibitory activity test (Qpatch, CHO-hERG cells); format: cell-based; settings: highest test concentration 40 μM, read-out: hERG (μM), inhibition at multiple concentrations on hERG current
T1 construct: expressed in transfected cells; host or cells: CHO-hERG cells
T1 sequence (Q12809 whole entry): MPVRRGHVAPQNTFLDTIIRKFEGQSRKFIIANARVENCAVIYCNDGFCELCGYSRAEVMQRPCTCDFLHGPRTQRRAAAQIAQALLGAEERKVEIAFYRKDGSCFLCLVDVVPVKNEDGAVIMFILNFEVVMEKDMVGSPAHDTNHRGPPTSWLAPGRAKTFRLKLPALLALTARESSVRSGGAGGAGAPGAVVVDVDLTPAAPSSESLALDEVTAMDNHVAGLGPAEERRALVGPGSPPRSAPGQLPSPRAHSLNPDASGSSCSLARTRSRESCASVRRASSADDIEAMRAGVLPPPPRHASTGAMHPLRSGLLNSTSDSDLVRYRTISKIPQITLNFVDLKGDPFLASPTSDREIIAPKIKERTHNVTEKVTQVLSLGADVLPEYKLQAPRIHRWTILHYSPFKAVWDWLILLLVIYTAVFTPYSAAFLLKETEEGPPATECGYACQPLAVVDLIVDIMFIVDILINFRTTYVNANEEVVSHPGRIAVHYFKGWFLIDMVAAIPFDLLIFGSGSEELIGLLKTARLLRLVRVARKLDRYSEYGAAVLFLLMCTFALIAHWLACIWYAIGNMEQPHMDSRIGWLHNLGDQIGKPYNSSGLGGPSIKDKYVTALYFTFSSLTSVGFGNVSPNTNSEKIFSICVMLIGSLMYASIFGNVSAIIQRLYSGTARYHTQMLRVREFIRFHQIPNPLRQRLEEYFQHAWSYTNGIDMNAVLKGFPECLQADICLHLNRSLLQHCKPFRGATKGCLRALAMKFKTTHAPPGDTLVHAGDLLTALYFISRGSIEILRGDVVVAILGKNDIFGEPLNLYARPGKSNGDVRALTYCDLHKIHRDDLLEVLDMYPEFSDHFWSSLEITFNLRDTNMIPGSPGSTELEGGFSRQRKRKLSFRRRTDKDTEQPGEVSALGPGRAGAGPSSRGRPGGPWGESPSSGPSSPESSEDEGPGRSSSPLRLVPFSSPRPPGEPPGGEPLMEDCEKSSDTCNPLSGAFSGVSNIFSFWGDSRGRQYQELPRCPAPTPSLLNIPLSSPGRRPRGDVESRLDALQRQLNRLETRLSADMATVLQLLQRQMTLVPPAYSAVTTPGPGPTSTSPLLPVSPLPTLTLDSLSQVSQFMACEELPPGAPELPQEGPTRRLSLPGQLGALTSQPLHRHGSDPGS
Description: 7.1.1 CHO-hERG cells were cultured in a 175 cm^2 flask, when the cell density reached 60-80%, the culture medium was removed, the cells were washed with 7 mL PBS, and then digested with 3 mL Detachin. 7.1.2 After complete digestion, 7 mL culture medium was added to neutralize, then the mixture was centrifuged, the supernatant was aspirated, and then 5 mL culture medium was added to re-suspend, ensuring 2-5×10^6/mL of cell density.
The process of single cell high impedance sealing and whole cell mode formation were all automatically completed by Qpatch instrument, after obtaining the whole cell recording mode, the cells were clamped at −80 mV, before giving a 5-second +40 mV depolarization stimulus, a 50 millisecond −50 mV prevoltage was given first, and then repolarized to −50 mV for 5 seconds, then returned to −80 mV. This voltage stimulation was applied every 15 seconds and recorded for 2 minutes before giving extracellular fluid recordings for 5 minutes, and then the administration process was started, the compound concentration was given from the lowest test concentration, each test concentration was given for 2.5 minutes, and the positive control compound 3 μM of Cisapride was given after all concentrations were continuously given. At least 3 cells (n≥3) were tested at each concentration.
7.4.1 20 mM of compound mother liquor was diluted with extracellular fluid, 5 μL of 20 mM compound mother liquor was added into 2495 μL of extracellular fluid and diluted 500-fold to 40 μM, and then the final concentration to be tested was obtained by sequential 3-fold serial dilutions in extracellular solution containing 0.2% DMSO. 7.4.2 The highest test concentration was 40 μM, in a total of 6 concentrations of 40, 13.33, 4.44, 1.48, 0.49 and 0.16 μM respectively. 7.4.3 The content of DMSO in the final test concentration was not more than 0.2%, and this concentration of DMSO had no effect on hERG potassium channel.
The experimental data were analyzed by XLFit software. […]

[2] = Plasma stability, dog plasma; format: in vitro ADME; settings: dog plasma, 37° C.
Description: as §1, §2, §3, §4, §5

[3] = Plasma stability, rat plasma; format: in vitro ADME; settings: rat plasma, 37° C.
Description: as §1, §2, §3, §4, §5

[4] = Plasma stability, human plasma; format: in vitro ADME; settings: human, 0.5 μM
Description: as §1, §2, §3, §4, §5

With C=CC(=O)N1C[C@H](C)N(c2nc(=O)n(-c3c(SC)ccnc3C(C)C)c3nc(-c4c(O)cccc4F)c(Cl)cc23)C[C@H]1C (atropisomer, axis not shown) [Embodiment 14-1, P-4-((2S,5R)-4-Acryloyl-2,5-dimethylpiperazin-1-yl)-6-chloro-7-(2-fluoro-6-hydroxyphenyl)-1-(2-isopropyl-4-(methylthio)pyridin-3-yl)pyrido[2,3-d]pyrimidin-2(1H)-one] the “Residual rate (%) 0 min” value ([1]; 0 min) was 100.00%, the “Residual rate (%) 15 min” value ([1]; 15 min) was 105.42% and the “Residual rate (%) 30 min” value ([1]; 30 min) was 100.02%. The “Residual rate (%) 60 min” value ([1]; 60 min) was 99.12%, the “Residual rate (%) 120 min” value ([1]; 120 min) was 85.55% and the IC50 (hERG potassium channel) was greater than 30 µM. The “Residual rate (%) 0 min” value ([2]; 0 min) was 100.00%, the “Residual rate (%) 15 min” value ([2]; 15 min) was 99.98% and the “Residual rate (%) 30 min” value ([2]; 30 min) was 98.79%. For the same compound, the “Residual rate (%) 60 min” value ([2]; 60 min) was 93.69%, the “Residual rate (%) 120 min” value ([2]; 120 min) was 86.16% and the “Residual rate (%) 0 min” value ([3]; 0 min) was 100.00%. For the same compound, the “Residual rate (%) 15 min” value ([3]; 15 min) was 93.20%, the “Residual rate (%) 30 min” value ([3]; 30 min) was 98.32% and the “Residual rate (%) 60 min” value ([3]; 60 min) was 99.08%. For the same compound, the “Residual rate (%) 120 min” value ([3]; 120 min) was 96.46%, the “Residual rate (%) 0 min” value ([4]; 0 min) was 100.00% and the “Residual rate (%) 15 min” value ([4]; 15 min) was 99.15%. The “Residual rate (%) 30 min” value ([4]; 30 min) was 94.74%, the “Residual rate (%) 60 min” value ([4]; 60 min) was 89.14% and the “Residual rate (%) 120 min” value ([4]; 120 min) was 78.85%.
